In PMC9814779, “A triple farnesoid X receptor and peroxisome proliferator-activated receptor α/δ activator reverses hepatic fibrosis in diet-induced NASH in mice” (Communications Chemistry, 2020):

Assays:
[1] = biological target: T1, human PPARα ligand-binding domain (Gal4 chimera) (Homo sapiens, UniProt Q07869); experiment: Gal4 hybrid reporter gene assay, PPARα; type: cell-based; parameters: Emax: dose or concentration left out as unconfirmed
T1 construct: coding for the hinge region and LBD of the canonical isoform of the respective nuclear receptor; expressed in transfected cells; host or cells: HEK293T
T1 sequence (Q07869 239-466 limits assumed): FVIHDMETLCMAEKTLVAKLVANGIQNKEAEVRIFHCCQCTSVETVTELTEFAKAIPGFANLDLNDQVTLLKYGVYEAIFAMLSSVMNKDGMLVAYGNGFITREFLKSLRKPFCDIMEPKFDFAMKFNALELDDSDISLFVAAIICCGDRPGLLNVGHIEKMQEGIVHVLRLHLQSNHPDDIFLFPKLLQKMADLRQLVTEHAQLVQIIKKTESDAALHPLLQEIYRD

[2] = biological target: T2, human PPARδ ligand-binding domain (Gal4 chimera) (Homo sapiens, UniProt Q03181); experiment: Gal4 hybrid reporter gene assay, PPARδ; type: cell-based; parameters: Emax: dose or concentration left out as unconfirmed
T2 construct: coding for the hinge region and LBD of the canonical isoform of the respective nuclear receptor; expressed in transfected cells; host or cells: HEK293T
T2 sequence (Q03181 211-439 limits assumed): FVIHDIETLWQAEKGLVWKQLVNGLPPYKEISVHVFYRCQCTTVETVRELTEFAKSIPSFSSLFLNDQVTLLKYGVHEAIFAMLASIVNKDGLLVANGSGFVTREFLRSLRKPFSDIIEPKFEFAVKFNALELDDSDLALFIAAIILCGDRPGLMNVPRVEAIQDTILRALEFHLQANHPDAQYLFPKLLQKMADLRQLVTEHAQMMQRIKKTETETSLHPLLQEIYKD

[3] = system: human full-length PPAR response element (PPRE) reporter; experiment: Full-length PPAR response element (PPRE) reporter gene assay in HEK293T cells; type: cell-based; conditions: HEK-293T, mean ± SEM, n = 3
Description: For the hybrid reporter gene assays, the previously reported Gal4-fusion receptor plasmids pFA-CMV-hPPARα-LBD[29], pFA-CMV-hPPARδ-LBD[29], pFA-CMV-hPPARγ-LBD[29], pFA-CMV-hLXRα-LBD[30], pFA-CMV-hLXRβ-LBD[30], pFA-CMV-hRXRα-LBD[31], pFA-CMV-hRXRβ-LBD[31], pFA-CMV-hRXRγ-LBD[31], pFA-CMV-hRARα-LBD[31], pFA-CMV-hRARβ-LBD[31], pFA-CMV-hRARγ-LBD[31], pFA-CMV-hVDR-LBD[31], and pFA-CMV-hCAR-LBD[31] coding for the hinge region and LBD of the canonical isoform of the respective nuclear receptor were used. pFR-Luc (Stratagene) was used as reporter plasmid for Gal4 hybrid reporter gene assays. pcDNA3-hFXR[32] and pSG5-hRXR[33] served for receptor overexpression in the full-length FXR assay and pGL3basic (Promega Corporation, Fitchburg, WI, USA) with a shortened construct of the BSEP promoter cloned into the SacI/NheI cleavage site in front of the luciferase gene[34] was used as reporter. PPRE-pGL3[35] contains the human full-length PPRE (cloned into the SacI/NheI cleavage site in front of the luciferase gene) and was used as reporter plasmid for the full-length PPRE reporter gene assay. pRL-SV40 (Promega) was used in all assays for normalization of transfection efficiency and cell growth.
Before transfection, medium was changed to Opti-MEM without supplements. […] Luminescence was measured with a Spark 10 M luminometer (Tecan Deutschland GmbH). […]

[4] = Microsomal stability assay; type: in vitro ADME, rat
[5] = 10 μM, rat liver microsomes, 37 °C, 41 n = 3, 7-EC n = 1

`CC(C)(C)c1ccc(C(=O)Nc2cccc(CCC(=O)O)c2)c(NC(=O)c2ccc(-c3ccco3)cc2)c1` [compound 41, 3-(3-[4-{tert-Butyl}-2-{4-(2-furyl)}benzamido]phenyl)propanoic acid] gave an EC50 ([1]; EC50 [μM] PPARα, HEK293T, mean ± SEM, n = 3) of 0.17 ± 0.04 µM, an EC50 ([1]; PPARα EC50, as stated in text) of 0.168 µM and an Emax ([1]; read-out: max. rel. act. PPARα) of 72%. The EC50 ([2]; EC50 [μM] PPARδ, HEK293T, mean ± SEM, n = 3) was 0.14 ± 0.01 µM, the EC50 ([2]; PPARδ EC50, as stated in text) was 0.141 µM and the Emax ([2]; read-out: max. rel. act. PPARδ) was 34%. For the same molecule, the EC50 [3] was 170 nM, the “percent of remaining compound, 15 min” value [4, 5] was 95 ± 3% and the “percent of remaining compound, 30 min” value [4, 5] was 95 ± 2%. The “percent of remaining compound, 60 min” value [4, 5] was 93 ± 2% and the “stability against microsomal degradation” value ([4]; in words) was “very high stability against microsomal degradation”.
